Biological target: T1, farnesyl protein transferase (Rattus norvegicus, UniProt Q02293+Q04631)
T1 construct: partially purified rat brain farnesyl protein transferase (FPT); from tissue; host or cells: rat brain, partially purified
Assay: FPT inhibition, in vitro enzyme assay (Ras-CVLS farnesylation by partially purified rat brain FPT)
Format: biochemical

SMILES | inhibition at 0.3 µM (@0.3 μM) | inhibition at 0.1 µM (@0.1 μM)
O=C(NCc1cccnc1)[C@@H]1CCCN1C1c2ncc(Br)cc2CCc2cc(Cl)cc(Br)c21 (single isomer, unassigned) [Example 2 Isomer A, 1-(3,10-dibromo-8-chloro-6,11-dihydro-5H-benzo[5,6]cyclohepta[1,2-b]pyridine-11-yl)-N-(3-pyridinylmethyl)-2-pyrrolidine carboxamide] | 15% | –
O=C(NCc1cccnc1)[C@@H]1CCN1C1c2ccc(Cl)cc2CCc2cc(Br)cnc21 (single isomer, unassigned) [Example 3 Isomer B, 1-(3-bromo-8-chloro-6,11-dihydro-5H-benzo[5,6]cyclohepta[1,2-b]pyridine-11-yl)-N-(3-pyridinylmethyl)2-azetidine carboxamide] | – | 17%
